According to patent publication US20120220662A1, “PHYTOCEUTICAL COMPOSITIONS FOR PETS” (BIOKAB, S.A. DE C.V., priority 2009, published 2012):

Assay: Accelerated Oxidization Tests (anti-oxidizing ability, peroxides)
Settings: 200 ppm (extract: Nejayote 1000 ppm + 200 ppm Pure Ferulic Acid)
Experimental: The tests of anti-oxidizing ability of the compositions in examples 1, 2 and 3. Said anti-oxidizing ability is the ability which conveys, to a considerable extent, the phytoceutical properties of our composition.
The determination was performed by AOAC Official Method 965.33/(AOCS Method Cd 8-53) 2000 AOAC International.

| SMILES | Accelerated Oxidization Tests (peroxides) (Time 0 Hs) [Meq/Kg] | Accelerated Oxidization Tests (peroxides) (Time 4 Hs) [Meq/Kg] | Accelerated Oxidization Tests (peroxides) (Time 8 Hs) [Meq/Kg] | Accelerated Oxidization Tests (peroxides) (Time 16 Hs) [Meq/Kg] | Accelerated Oxidization Tests (peroxides) (Time 24 Hs) [Meq/Kg] | Accelerated Oxidization Tests (peroxides) (Time 32 Hs) [Meq/Kg] | Accelerated Oxidization Tests (peroxides) (Time 40 Hs) [Meq/Kg] | Accelerated Oxidization Tests (peroxides) (Time 48 Hs) [Meq/Kg] | Accelerated Oxidization Tests (peroxides) (Time 56 Hs) [Meq/Kg] | Accelerated Oxidization Tests (peroxides) (Time 64 Hs) [Meq/Kg] | Accelerated Oxidization Tests (peroxides) (Time 72 Hs) [Meq/Kg] | Accelerated Oxidization Tests (peroxides) (Time 80 Hs) [Meq/Kg] | Accelerated Oxidization Tests (peroxides) (Time 88 Hs) [Meq/Kg] | Accelerated Oxidization Tests (peroxides) (Time 96 Hs) [Meq/Kg] | Accelerated Oxidization Tests (peroxides) (Time 104 Hs) [Meq/Kg] | Accelerated Oxidization Tests (peroxides) (Time 112 Hs) [Meq/Kg] | Accelerated Oxidization Tests (peroxides) (Time 120 Hs) [Meq/Kg] | Accelerated Oxidization Tests (peroxides) (Time 128 Hs) [Meq/Kg] |
| --- | --- | --- | --- | --- | --- | --- | --- | --- | --- | --- | --- | --- | --- | --- | --- | --- | --- | --- |
| COc1cc(/C=C/C(=O)O)ccc1O [Pure Ferulic Acid, ferulic acid] | 0.00 | 0.00 | 0.00 | 0.00 | 0.00 | 3.17 | 4.19 | 7.25 | 13.61 | 20.18 | 21.12 | 24.19 | 31.16 | 36.19 | 51.14 | 31.05 | 21.05 | 0.00 |
| COc1ccc(O)c(C(C)(C)C)c1 [pure BHA, Butylated Hydroxy Anisole] | 0.00 | 0.00 | 0.00 | 0.00 | 0.00 | 0.00 | 0.00 | 0.60 | 0.68 | 1.09 | 0.91 | 1.89 | 8.03 | 41.94 | 45.11 | 36.12 | 24.10 | 6.16 |
